# Laboratory results: patent publication US20160228575A1, “NARINGENIN COMPLEXES AND METHODS OF USE THEREOF” (THE GENERAL HOSPITAL CORPORATION, priority 2008, published 2016)
# “Also recorded” adds a separate entry of the source. Read-outs that look alike come from different tables or passages of the source.
# Tests used:
# [1] = system: HCV (JFH-1) secreted by infected Huh-7.5.1 cells; test: HCV secretion by JFH-1 infected Huh-7.5.1 cells (HCV core antigen ELISA, HCV positive strand RNA qPCR); format: cell-based, Hepatitis C virus
# Protocol: The Huh-7.5.1 human hepatoma cell line and a plasmid containing the JFH-1 genome were kindly provided by Dr. Chisari (Scripps Research Institute, CA) and Dr. Wakita (National Institute of Infectious Diseases, Tokyo) respectively. Huh-7.5.1 cells were cultured in DMEM medium supplemented with 10% FBS, 200 units/ml penicillin and […] streptomycin in a 5% CO2-humidified incubator at 37° C. In vitro transcribed genomic JFH-1 RNA was delivered to cells by liposome-mediated transfection as described by Zhong et al. (2005)(8). Infected Huh-7.5.1 cells were passaged every 3 days and used at passage <15. The presence of HCV in these cells and corresponding supernatants were determined by quantitative Polymerase Chain Reaction (qPCR) and immunofluorescence staining. Primary human hepatocytes were purchased from BD Biosciences (San Jose, Calif.) cultured on a collagen-coated 12 well plate in C+H culture media composed of DMEM supplemented with 10% heat-inactivated FBS, 200 U/mL penicillin/streptomycin, 7.5 μg/mL hydrocortisone, 20 ng/mL EGF, 14 ng/mL glucagons and 0.5 U/mL insulin. The media was supplemented with 2% DMSO for long-term culture of the primary cells.
# (§1) HCV-infected Huh-7.5.1 cells were plated on a 6-well plate at a density of 1×10^5 cells/cm^2 and cultured overnight in standard medium. Prior to the beginning of the experiment, the cells were washed 3 times with PBS and cultured with DMEM containing 5% lipoprotein-free FBS. Oleate, Insulin, Naringenin, and Brefeldin A were added at this time as described in the text. Following 24 hours of incubation, the plate was gently agitated to release mechanically bound particles, the media was collected, filtered to remove cellular debris, and stored at −80° C. for further analysis. The attached cells were washed 3 times with PBS, harvested, pelleted and stored at −80° C. for further analysis.
# Huh-7.5.1 secreted HCV core antigen was detected in the media using Wako Chemicals (Cambridge, Mass.) ORTHO HCV antigen ELISA kit. Media was used as is, and the assay was carried out according to manufacturer's directions.
# (§2) Virus samples collected in each experiment were filtered with a 0.45 μm filter and a volume of 100 μL for each sample was heated at 95° C. for 45 min. The reverse transcription reaction step was performed on a Mastercycler epgrdientS (Eppendorf) instrument using Omniscript and Sensiscript RT Kits (Qiagen). Real time PCR was performed on a Light Cycler LC-24 (Idaho Technology), using SuperScript™ III Platinum® CellsDirect Two-Step qRT-PCR Kits (Invitrogen) for quantitative PCR. For reverse transcription step, 2 μL of sample without RNA extraction were used. For real time PCR, 1 μL of the reverse transcription reactions was used. All reactions were performed according to the manufacturer's instructions using the primers detailed in Table 1.
# However, this experiment was carried out on cells continuously producing the virus. Long-term treatment could potentially have a greater effect. […] This treatment is compared to the current standard-of-care, 1000 i.u. of Interferon α (IFNα). Both treatments lowered HCV RNA to a similar level, 96±5% and 93±5% respectively.
# HMGR = HMGR transcription by qPCR in infected Huh7.5.1 cells; format: cell-based, human; conditions: naringenin 24 hours, infected Huh-7.5.1 cells
# ACAT2 = ACAT2 transcription by qPCR in infected Huh7.5.1 cells; format: cell-based, human; conditions: naringenin 24 hours, infected Huh-7.5.1 cells
# MTP = MTP mRNA level by qPCR in infected Huh7.5.1 cells; format: cell-based, human; conditions: naringenin 24 hours
# ACAT1 = ACAT1 mRNA level by qPCR in infected Huh7.5.1 cells; format: cell-based, human; conditions: naringenin 24 hours
# [2] = system: HCV (JFH-1) in Huh-7.5.1 cells; test: Intracellular HCV RNA and core protein in infected Huh-7.5.1 cells; format: cell-based, Hepatitis C virus
# Protocol: as §1, §2
# Huh-7.5.1 cells were washed 3 times with PBS and fixed in 4% EM-grade paraformaldehyde for 10 minutes at room temperature. Slides were then washed with PBS and incubated in 100 mmol/L glycine for 15 minutes to saturate reactive groups. Samples were permeabilized for 15 minutes with 0.1% Triton X-100, blocked for 30 minutes with 1% bovine serum albumin and 5% donkey serum at room temperature, and stained with primary antibodies overnight at 4° C. After additional washes with PBS, samples were stained with fluorescently tagged secondary antibodies for 45 minutes at room temperature.
# [3] = Intraperitoneal injection of naringenin to SCID mice: survival, liver enzymes, triglycerides; format: in vivo
# Protocol: Male SCID mice (8 weeks old, 20-25 g) were obtained from Charles River Laboratories (Wilmington, Mass.). Animals were treated in accordance with NIH guidelines, and MGH Subcommittee on Research Animal Care. The mice were allowed free access to laboratory chow and water ad labium. Naringenin was dissolved in 0.5% Tween 20 diluted in saline and given by intraperitoneal injection. Two days following the treatment, animals were sacrificed and blood was withdrawn by cardiac puncture. AST and ALT enzyme levels were assessed as described above. Total triglycerides were measured using a kit purchased from Sigma-Aldrich Chemicals (St. Louis, Mo.) according to the manufacturer's instructions.
# To assess naringenin ability to reduce circulating vLDL levels we measured total triglycerides levels in animal plasma.
# [4] = 400 mg/day oral, hypercholesterolemic patients; cited from earlier work
# S-180 sarcoma cell line = conditions: intraperitoneal or peroral injection once a day for 5 days, mice, cited from earlier work
# [5] = rats, intraperitoneal injection; cited from earlier work
# [6] = guinea pigs, intraperitoneal injection; cited from earlier work
# [7] = 24 hours, brefeldin A 2.5 μg/ml
smiles,measurement,setting,value
O=C1C[C@@H](c2ccc(O)cc2)Oc2cc(O)cc(O)c21 [naringenin],effective dose of naringenin in cell culture,[1],0.20 mM
same,HCV core protein secretion (in words),[1]; [7],inhibits
same,HCV positive strand RNA secretion (in words),[1]; [7],inhibits
same,inhibition at 200 µM,"[1]; Hepatitis C virus, 200 μM naringenin, short-term (24 hrs), infected Huh-7.5.1 cells",80%
same,"inhibition of HCV (RNA) secretion, long-term treatment","[1]; long-term daily treatment of infected Huh7.5.1 cells, naringenin 200 μM, IFNα 1000 i.u.",96±5%
same,reduction of HMGR transcription,HMGR,57%±3%
same,reduction of ACAT2 transcription,ACAT2,55%±7%
same,MTP mRNA level,MTP,remained unchanged
same,ACAT1 mRNA level,ACAT1,remained unchanged
same,intracellular HCV core protein expression,[2]; 24 hours stimulation,remained unchanged
same,intracellular levels of HCV (positive strand) RNA,[2]; 24 hours stimulation,remains unchanged
same,"HCV replication (intracellular HCV RNA), long-term treatment","[2]; long-term treatment, naringenin 200 μM, IFNα 1000 i.u.",didn't appear to effect; also recorded: remained unchanged
same,ALT levels in plasma,"[3]; 48 hrs following i.p. injection, all doses",no elevation
same,AST levels in plasma,"[3]; 48 hrs following i.p. injection, even at the highest dose (1500 mg/kg)",under 100 U/l
same,total triglycerides in animal plasma,[3]; following i.p. naringenin injection,decrease
same,animal survival,"[3]; intraperitoneal injection, 60, 300, 1500 mg/kg, male SCID mice",not affected; also recorded: did not cause death
same,lowering of LDL levels,[4],17%
same,tumor growth of S-180 sarcoma,S-180 sarcoma cell line,significantly inhibit
same,tumor growth of S-180 sarcoma,S-180 sarcoma cell line; listed as Naringenin,significantly inhibits
same,LD50 (50% kill),[5],2000 mg/kg
same,LD50 (50% kill),[6],2000 mg/kg
